Laboratory results reported in US8952024B2, “Herbicidal pyrimidone derivatives” (E I du Pont de Nemours and Company, priority 2009, dated 2015).

Experiments:
Assay in all cases: Test B pre-/postemergence plant response
Assay type in all cases: in vivo
[1] = test system: morningglory (Ipomoea coccinea); conditions: for Morningglory plant response rating (0 to 100 scale): 0 is no effect, 13 to 15 days
How it was run: (§1)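 Test compounds, formulated in a non-phytotoxic solvent mixture with surfactant, are applied to the soil surface (loam and sand blend) right after seeding, or sprayed over plants at the 1- to 4-leaf stage grown in peat moss/vermiculite medium. After 13 to 15 days under glasshouse conditions, each species is scored visually from 0 (no effect) to 100 (complete control) against controls.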

[2] = test system: blackgrass (Alopecurus myosuroides); conditions: for Blackgrass plant response rating (0 to 100 scale): 0 is no effect, 13 to 15 days
How it was run: as §1

[3] = test system: cocklebur (Xanthium strumarium); conditions: for Cocklebur plant response rating (0 to 100 scale): 0 is no effect, 13 to 15 days
How it was run: as §1

[4] = test system: ragweed (common ragweed, Ambrosia elatior); conditions: for Ragweed plant response rating (0 to 100 scale): 0 is no effect, 13 to 15 days
How it was run: as §1

soybean (Glycine max) = conditions: for Soybean plant response rating (0 to 100 scale): 62 g ai/ha, 0 is no effect, 13 to 15 days
How it was run: as §1

corn (Zea mays) = conditions: for Corn plant response rating (0 to 100 scale): 0 is no effect, 13 to 15 days
How it was run: as §1

kochia (Kochia scoparia) = conditions: for Kochia plant response rating (0 to 100 scale): 0 is no effect, 13 to 15 days
How it was run: as §1

[5] = test system: goosegrass (Eleusine indica); conditions: for Goosegrass plant response rating (0 to 100 scale): 0 is no effect, 13 to 15 days
How it was run: as §1

[6] = test system: velvetleaf (Abutilon theophrasti); conditions: for Velvetleaf plant response rating (0 to 100 scale): 0 is no effect, 13 to 15 days
How it was run: as §1

[7] = test system: large crabgrass (Digitaria sanguinalis); conditions: for Crabgrass, Large plant response rating (0 to 100 scale): 0 is no effect, 13 to 15 days
How it was run: as §1

[8] = test system: giant foxtail (Setaria faberii); conditions: for Foxtail, Giant plant response rating (0 to 100 scale): 0 is no effect, 13 to 15 days
How it was run: as §1

[9] = test system: johnsongrass (Sorghum halepense); conditions: for Johnsongrass plant response rating (0 to 100 scale): 0 is no effect, 13 to 15 days
How it was run: as §1

[10] = test system: Italian ryegrass (Lolium multiflorum); conditions: for Ryegrass, Italian plant response rating (0 to 100 scale): 0 is no effect, 13 to 15 days
How it was run: as §1

[11] = test system: green foxtail (Setaria viridis); conditions: for Foxtail, Green plant response rating (0 to 100 scale): 0 is no effect, 13 to 15 days
How it was run: as §1

[12] = 31 g ai/ha, postemergence, scale 0 to 100, 0 is no effect, 100 is complete control
[13] = 62 g ai/ha, postemergence, 100 is complete control
[14] = Postemergence, 125 g ai/ha, visual rating after 13 to 15 days, scale 0 (no effect) to 100 (complete control)
[15] = Postemergence, 250 g ai/ha, scale 0 to 100 (0 no effect, 100 complete control)
[16] = Preemergence, 31 g ai/ha, scale 0 to 100 (0 no effect, 100 complete control)
[17] = Preemergence, 62 g ai/ha, scale 0 to 100 (0 no effect, 100 complete control)
[18] = Preemergence, 125 g ai/ha, scale 0 to 100, 0 no effect, 100 complete control
[19] = 250 g ai/ha, Preemergence, 0 to 100 scale
[20] = postemergence, 100 is complete control

Which results are given for `CCCCc1ncc(C(=O)C2=C(O)CCCC2=O)c(=O)n1-c1ccc(C)cc1` [Compound 67]?
Plant response rating, Morningglory [1, 12]: 80; Morningglory plant response rating (0 to 100 scale) [1, 13]: 90; Plant response rating, Morningglory [1, 14]: 95; Plant response rating, Morningglory [1, 15]: 100; Plant response rating, Morningglory [1, 16]: 0; Plant response rating, Morningglory [1, 17]: 15; Plant response rating, Morningglory [1, 18]: 15; Plant response rating, Blackgrass [2, 12]: 0; Blackgrass plant response rating (0 to 100 scale) [2, 13]: 0; Plant response rating, Blackgrass [2, 19]: 5; Plant response rating, Blackgrass [2, 14]: 5; Plant response rating, Blackgrass [2, 15]: 10; Plant response rating, Blackgrass [2, 16]: 0; Plant response rating, Blackgrass [2, 17]: 0; Plant response rating, Blackgrass [2, 18]: 0; Plant response rating, Cocklebur [3, 12]: 75; Cocklebur plant response rating (0 to 100 scale) [3, 13]: 75; Plant response rating, Cocklebur [3, 19]: 20; Plant response rating, Cocklebur [3, 14]: 90; Plant response rating, Cocklebur [3, 15]: 90; Plant response rating, Cocklebur [3, 16]: 0; Plant response rating, Cocklebur [3, 17]: 0; Plant response rating, Cocklebur [3, 18]: 15; Plant response rating, Ragweed [4, 12]: 75; Ragweed plant response rating (0 to 100 scale) [4, 13]: 80; Plant response rating, Ragweed [4, 14]: 85; Plant response rating, Ragweed [4, 15]: 90; Plant response rating, Ragweed [4, 16]: 25; Plant response rating, Ragweed [4, 17]: 25; Plant response rating, Ragweed [4, 18]: 35; Plant response rating, Soybean (soybean (Glycine max); [12]): 80; Soybean plant response rating (0 to 100 scale) (soybean (Glycine max); [20]): 90; Plant response rating, Soybean (soybean (Glycine max); [14]): 98; Plant response rating, Soybean (soybean (Glycine max); [15]): 98; Plant response rating, Corn (corn (Zea mays); [12]): 5; Corn plant response rating (0 to 100 scale) (corn (Zea mays); [13]): 10; Plant response rating, Corn (corn (Zea mays); [19]): 0; Plant response rating, Corn (corn (Zea mays); [14]): 65; Plant response rating, Corn (corn (Zea mays); [15]): 75; Plant response rating, Corn (corn (Zea mays); [16]): 0; Plant response rating, Corn (corn (Zea mays); [17]): 0; Plant response rating, Corn (corn (Zea mays); [18]): 0; Plant response rating, Kochia (kochia (Kochia scoparia); [12]): 75; Kochia plant response rating (0 to 100 scale) (kochia (Kochia scoparia); [13]): 80; Plant response rating, Kochia (kochia (Kochia scoparia); [19]): 85; Plant response rating, Kochia (kochia (Kochia scoparia); [14]): 85; Plant response rating, Kochia (kochia (Kochia scoparia); [15]): 85; Plant response rating, Kochia (kochia (Kochia scoparia); [16]): 70; Plant response rating, Kochia (kochia (Kochia scoparia); [17]): 70; Plant response rating, Kochia (kochia (Kochia scoparia); [18]): 80; Plant response rating, Goosegrass [5, 12]: 55; Goosegrass plant response rating (0 to 100 scale) [5, 13]: 55; Plant response rating, Goosegrass [5, 19]: 98; Plant response rating, Goosegrass [5, 14]: 65; Plant response rating, Goosegrass [5, 15]: 80; Plant response rating, Goosegrass [5, 16]: 85; Plant response rating, Goosegrass [5, 17]: 85; Plant response rating, Goosegrass [5, 18]: 90; Plant response rating, Velvetleaf [6, 12]: 90; Velvetleaf plant response rating (0 to 100 scale) [6, 13]: 95; Plant response rating, Velvetleaf [6, 14]: 98; Plant response rating, Velvetleaf [6, 15]: 100; Plant response rating, Velvetleaf [6, 16]: 75; Plant response rating, Velvetleaf [6, 17]: 85; Plant response rating, Velvetleaf [6, 18]: 90; Plant response rating, Crabgrass, Large [7, 12]: 75; Crabgrass, Large plant response rating (0 to 100 scale) [7, 13]: 80; Plant response rating, Crabgrass, Large [7, 19]: 100; Plant response rating, Crabgrass, Large [7, 14]: 90; Plant response rating, Crabgrass, Large [7, 15]: 95; Plant response rating, Crabgrass, Large [7, 16]: 40; Plant response rating, Crabgrass, Large [7, 17]: 65; Plant response rating, Crabgrass, Large [7, 18]: 98; Plant response rating, Foxtail, Giant [8, 12]: 75; Foxtail, Giant plant response rating (0 to 100 scale) [8, 13]: 80; Plant response rating, Foxtail, Giant [8, 19]: 65; Plant response rating, Foxtail, Giant [8, 14]: 85; Plant response rating, Foxtail, Giant [8, 15]: 90; Plant response rating, Foxtail, Giant [8, 16]: 0; Plant response rating, Foxtail, Giant [8, 17]: 0; Plant response rating, Foxtail, Giant [8, 18]: 45; Plant response rating, Johnsongrass [9, 12]: 0; Johnsongrass plant response rating (0 to 100 scale) [9, 13]: 0; Plant response rating, Johnsongrass [9, 19]: 0; Plant response rating, Johnsongrass [9, 14]: 5; Plant response rating, Johnsongrass [9, 15]: 10; Plant response rating, Johnsongrass [9, 16]: 0; Plant response rating, Johnsongrass [9, 17]: 0; Plant response rating, Johnsongrass [9, 18]: 0; Plant response rating, Ryegrass, Italian [10, 12]: 0; Ryegrass, Italian plant response rating (0 to 100 scale) [10, 13]: 5; Plant response rating, Ryegrass, Italian [10, 14]: 5; Plant response rating, Ryegrass, Italian [10, 15]: 5; Plant response rating, Ryegrass, Italian [10, 16]: 0; Plant response rating, Ryegrass, Italian [10, 17]: 0; Plant response rating, Ryegrass, Italian [10, 18]: 0; Plant response rating, Foxtail, Green [11, 12]: 10; Foxtail, Green plant response rating (0 to 100 scale) [11, 13]: 80; Plant response rating, Foxtail, Green [11, 19]: 40; Plant response rating, Foxtail, Green [11, 14]: 80; Plant response rating, Foxtail, Green [11, 15]: 95; Plant response rating, Foxtail, Green [11, 16]: 0; Plant response rating, Foxtail, Green [11, 17]: 30

What does the source list for `O=C1CCCC(O)=C1C(=O)c1cnc(-c2ccccc2Br)n(-c2ccccc2)c1=O` [Compound 71]?
Plant response rating, Morningglory [1, 12]: 65; Morningglory plant response rating (0 to 100 scale) [1, 13]: 65; Plant response rating, Morningglory [1, 14]: 75; Plant response rating, Morningglory [1, 15]: 80; Plant response rating, Blackgrass [2, 12]: 0; Blackgrass plant response rating (0 to 100 scale) [2, 13]: 0; Plant response rating, Blackgrass [2, 14]: 0; Plant response rating, Blackgrass [2, 15]: 5; Plant response rating, Cocklebur [3, 12]: 65; Cocklebur plant response rating (0 to 100 scale) [3, 13]: 65; Plant response rating, Cocklebur [3, 14]: 95; Plant response rating, Cocklebur [3, 15]: 95; Plant response rating, Ragweed [4, 12]: 75; Ragweed plant response rating (0 to 100 scale) [4, 13]: 80; Plant response rating, Ragweed [4, 14]: 80; Plant response rating, Ragweed [4, 15]: 95; Plant response rating, Soybean (soybean (Glycine max); [12]): 65; Soybean plant response rating (0 to 100 scale) (soybean (Glycine max); [20]): 70; Plant response rating, Soybean (soybean (Glycine max); [14]): 95; Plant response rating, Soybean (soybean (Glycine max); [15]): 98; Plant response rating, Corn (corn (Zea mays); [12]): 0; Corn plant response rating (0 to 100 scale) (corn (Zea mays); [13]): 0; Plant response rating, Corn (corn (Zea mays); [14]): 0; Plant response rating, Corn (corn (Zea mays); [15]): 15; Plant response rating, Kochia (kochia (Kochia scoparia); [12]): 0; Kochia plant response rating (0 to 100 scale) (kochia (Kochia scoparia); [13]): 0; Plant response rating, Kochia (kochia (Kochia scoparia); [14]): 25; Plant response rating, Kochia (kochia (Kochia scoparia); [15]): 65; Plant response rating, Goosegrass [5, 12]: 75; Goosegrass plant response rating (0 to 100 scale) [5, 13]: 75; Plant response rating, Goosegrass [5, 14]: 90; Plant response rating, Goosegrass [5, 15]: 90; Plant response rating, Velvetleaf [6, 12]: 75; Velvetleaf plant response rating (0 to 100 scale) [6, 13]: 85; Plant response rating, Velvetleaf [6, 14]: 90; Plant response rating, Velvetleaf [6, 15]: 95; Plant response rating, Crabgrass, Large [7, 12]: 65; Crabgrass, Large plant response rating (0 to 100 scale) [7, 13]: 75; Plant response rating, Crabgrass, Large [7, 14]: 80; Plant response rating, Crabgrass, Large [7, 15]: 95; Plant response rating, Foxtail, Giant [8, 12]: 20; Foxtail, Giant plant response rating (0 to 100 scale) [8, 13]: 75; Plant response rating, Foxtail, Giant [8, 14]: 80; Plant response rating, Foxtail, Giant [8, 15]: 95; Plant response rating, Johnsongrass [9, 12]: 65; Johnsongrass plant response rating (0 to 100 scale) [9, 13]: 75; Plant response rating, Johnsongrass [9, 14]: 98; Plant response rating, Johnsongrass [9, 15]: 100; Plant response rating, Ryegrass, Italian [10, 12]: 0; Ryegrass, Italian plant response rating (0 to 100 scale) [10, 13]: 0; Plant response rating, Ryegrass, Italian [10, 14]: 0; Plant response rating, Ryegrass, Italian [10, 15]: 5; Plant response rating, Foxtail, Green [11, 12]: 60; Foxtail, Green plant response rating (0 to 100 scale) [11, 13]: 60; Plant response rating, Foxtail, Green [11, 14]: 70; Plant response rating, Foxtail, Green [11, 15]: 98
